Columns and labels:
B16 melanoma = B16 melanoma implantation in C57 BL mice, treatment with GITR agonist; type: in vivo; details: intraperitoneal 30 mg/kg twice per week vs DMSO control; p=0.0333, log rank
Procedure: After implantation of B16 melanoma, C57 BL mice underwent treatment with 11702 GITR agonist or DMSO control. (A) Animals lived longer after GITR agonist intraperitoneal 30 mg/kg treatment twice per week (p=0.0333, log rank). (B) Tumor volume was inhibited in 11702 treated animals (p<0.05, Anova).
After implantation of B16 melanoma, C57 BL mice underwent treatment with 11702 GITR agonist or DMSO control. […] (B) Tumor volume was inhibited in 11702 treated animals (p<0.05, Anova).

[1] = system: CD4+CD25- cells (T effector cells); assay: T cell suppression assay (CFSE proliferation of T effector cells, FACS); type: cell-based, human; details: for inhibition (decrease) of T cell proliferation: T effector without T-reg
Excerpt: FIGS. 1A-1B show the results of where PBMC was isolated (Ficoll, GE Healthcare) from the WBC cone collected from healthy platelet donor. Cells were washed and passed through 40 um cell strainer before being stained with T cell surface antibodies. Then cells were put on cell sorter (BD FACSARIA III). Specific cell populations were collected as follows: CD4^+CD25^− cells (T effector cells), CD4^+CD25^+CD45RA^+CD127^− cells (T regulatory cells) and CD3^− cells (serve as Antigen Presenting Cells, APC). T effector cells were labeled with CellTrace CFSE (Invitrogen), heavily washed before cell number counting. Effector cells and T-regs were then mixed together at 1:1 ratio in culture media (RPMI 1640, 10% FBS, Pen-Strep and 1% NEAA) which enhanced with anti-CD3 (3 ug/ml) anti-CD28 (2 ug/ml) antibodies. APCs were treated with Mitomycin (50 ug/ml) for 30 minutes at 37° C., 5% CO2 incubator, then added to culture mix (APC:T-eff 2:1) as a proliferation co-stimulator. Cell mixture was incubated at 37° C., 5% CO2 for 6 days before being re-stained with T cell surface markers (CD4, CD25) and sent for FACS analysis. (A) T-eff fully stimulated; (B) T-eff fully stimulated+T-reg (1:1).
PBMC was isolated and specific human T cell populations were collected as follows: CD4^+CD25^− cells (T effector cells), CD4^+CD25^+CD45RA^+CD127^− cells (T regulatory cells) and CD3^− cells (serve as Antigen Presenting Cells, APC). T effector cells were labeled with CellTrace CFSE and effector cells and T-regs were then mixed together at 1:1 ratio in culture media (RPMI 1640, 10% FBS, Pen-Strep and 1% NEAA) which enhanced with anti-CD3 (3 ug/ml) anti-CD28 (2 ug/ml) antibodies. APCs were treated with Mitomycin (50 ug/ml) for 30 minutes at 37° C., 5% CO2 incubator, then added to culture mix (APC:T-eff 2:1) as a proliferation co-stimulator, incubated, and sent for FACS analysis. Molecule 11702 agonist and 11704 antagonist were added to treat groups respectively at a concentration gradient of 5 uM, 25 uM and 50 uM.
PBMC was isolated (Ficoll, GE Healthcare) from the WBC cone collected from healthy platelet donor. Cells were washed and passed through 40 um cell strainer before being stained with T cell surface antibodies. Then cells were put on cell sorter (BD FACSARIA III). Specific cell populations were collected as follows: CD4^+CD25^− cells (T effector cells), CD4^+CD25^+CD45RA^+CD127^− cells (T regulatory cells) and CD3^− cells (serve as Antigen Presenting Cells, APC). T effector cells were labeled with CellTrace CFSE (Invitrogen), heavily washed before cell number counting. Effector cells and T-regs were then mixed together at 1:1 ratio in culture media (RPMI 1640, 10% FBS, Pen-Strep and 1% NEAA) which enhanced with anti-CD3 (3 ug/ml) anti-CD28 (2 ug/ml) antibodies. […]

| SMILES | survival of animals (B16 melanoma) | inhibition at 50 µM ([1]; Homo sapiens, T-cell, T effector + T-reg (1:1), 50 uM, read-out: inhibition (decrease) of proliferation compared to base line) | effect on T effector cell population ([1]; T cell suppression assay, with and without Tregs, more effective in the presence of Tregs) | inhibition (decrease) of T cell proliferation ([1]; 5 uM) | inhibition (decrease) of T cell proliferation ([1]; 25 um) |
| --- | --- | --- | --- | --- | --- |
| OCC1OC(Nc2ccc(-c3ccc(NC4CC(O)C(CO)O4)cc3)cc2)CC1O (centres unmarked) [RMGL171102] | lived longer | – | – | – | – |
| O=C(CCCCC(=O)NN=Cc1cccc(O)c1)NN=Cc1cccc(O)c1 [RMGL171104] | – | 55.9% | dose dependent retraction of T effector cells | no significant effect | no significant effect |

Reference: patent US20210299176A1, “COMPOSITIONS AND METHODS FOR TREATING CANCER AND AUTOIMMUNE DISEASES” (CEDARS-SINAI MEDICAL CENTER, priority 2018, published 2021)
